# Results published in patent US6960594B2, “Thiophene and furan 2,5-dicarboxamides useful in the treatment of cancer” (Shire BioChem Inc., priority 1998, dated 2005).
# Values joined by “and” are separate entries in the source; they are usually repeats but may differ in a detail not shown here. Equal values may be shown once.
# Assays:
# [1] = molecular target: T1, GP IIb-IIIa (αIIbβ3) (Homo sapiens, UniProt P05106+P08514); assay: Fibrinogen binding to immobilized GP IIb-IIIa (αIIbβ3)
# T1 construct: purchased Calbiochem
# T1 sequence (P08514 32-887 limits assumed): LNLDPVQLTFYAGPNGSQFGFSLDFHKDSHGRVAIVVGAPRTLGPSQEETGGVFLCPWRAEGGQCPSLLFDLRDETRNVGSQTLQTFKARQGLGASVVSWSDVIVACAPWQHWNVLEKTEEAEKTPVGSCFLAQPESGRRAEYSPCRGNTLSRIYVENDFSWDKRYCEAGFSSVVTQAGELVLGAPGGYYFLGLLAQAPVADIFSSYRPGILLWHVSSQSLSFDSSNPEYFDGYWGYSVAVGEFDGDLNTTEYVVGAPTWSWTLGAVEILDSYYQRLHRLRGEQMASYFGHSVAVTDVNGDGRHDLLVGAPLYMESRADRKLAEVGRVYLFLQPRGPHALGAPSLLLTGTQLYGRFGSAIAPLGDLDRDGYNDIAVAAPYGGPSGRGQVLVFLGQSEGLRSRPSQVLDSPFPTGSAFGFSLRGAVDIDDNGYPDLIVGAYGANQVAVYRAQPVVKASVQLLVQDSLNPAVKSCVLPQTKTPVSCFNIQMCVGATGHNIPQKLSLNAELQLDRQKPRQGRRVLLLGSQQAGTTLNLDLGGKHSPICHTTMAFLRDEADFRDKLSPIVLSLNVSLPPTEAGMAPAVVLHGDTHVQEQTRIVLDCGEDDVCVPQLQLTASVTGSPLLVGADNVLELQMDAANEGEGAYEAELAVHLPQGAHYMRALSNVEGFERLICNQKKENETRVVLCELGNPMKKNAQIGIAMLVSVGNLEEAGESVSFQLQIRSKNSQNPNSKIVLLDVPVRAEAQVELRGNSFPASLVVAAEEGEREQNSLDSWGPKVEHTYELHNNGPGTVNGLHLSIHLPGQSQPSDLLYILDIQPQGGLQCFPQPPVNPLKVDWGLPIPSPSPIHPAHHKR
# T1 sequence (P08514 891-1039 partner limits assumed): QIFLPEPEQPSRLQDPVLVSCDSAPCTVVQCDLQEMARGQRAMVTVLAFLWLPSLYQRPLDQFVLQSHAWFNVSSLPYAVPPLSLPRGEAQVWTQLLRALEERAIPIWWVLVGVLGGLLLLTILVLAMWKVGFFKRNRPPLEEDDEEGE
# T1 sequence (P05106 27-788): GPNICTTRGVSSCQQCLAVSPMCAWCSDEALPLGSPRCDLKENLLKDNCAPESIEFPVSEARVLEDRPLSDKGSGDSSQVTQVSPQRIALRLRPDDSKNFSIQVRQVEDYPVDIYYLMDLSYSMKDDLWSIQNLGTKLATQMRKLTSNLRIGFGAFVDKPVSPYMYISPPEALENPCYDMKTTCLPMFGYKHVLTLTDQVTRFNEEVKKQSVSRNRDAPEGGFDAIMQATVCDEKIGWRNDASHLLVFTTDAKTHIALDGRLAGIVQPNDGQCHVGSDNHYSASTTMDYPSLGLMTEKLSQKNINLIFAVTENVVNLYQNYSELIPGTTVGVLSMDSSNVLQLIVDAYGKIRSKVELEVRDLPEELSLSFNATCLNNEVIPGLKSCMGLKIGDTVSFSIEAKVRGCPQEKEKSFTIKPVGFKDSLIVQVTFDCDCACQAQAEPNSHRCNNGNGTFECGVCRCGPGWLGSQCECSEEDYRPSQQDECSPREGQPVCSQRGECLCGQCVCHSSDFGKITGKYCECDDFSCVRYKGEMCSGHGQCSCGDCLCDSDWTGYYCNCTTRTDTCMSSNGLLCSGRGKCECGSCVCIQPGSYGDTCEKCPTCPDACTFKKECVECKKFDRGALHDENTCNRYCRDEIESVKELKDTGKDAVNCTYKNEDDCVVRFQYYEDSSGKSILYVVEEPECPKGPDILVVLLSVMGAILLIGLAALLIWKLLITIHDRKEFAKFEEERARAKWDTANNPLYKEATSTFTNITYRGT
# Experimental: The wells of plastic microtiter plates were coated overnight at 4° C. with purified active αIIbβ3 (Calbiochem) or placental αvβ3 at 0.5 ug/mL (100 uL/well) in a buffer containing 150 mM NaCl, 20 mM Tris, pH 7.4, 1 mM MgCl2, 0.2 mM MnCl2, and including 1 mM CaCl2 for αIIbβ3. Blocking of nonspecific sites was achieved by incubating the wells with 35 mg/mL bovine serum albumin (BSA) for at least 2 hours at 37° C. Biotinylated-fibrinogen (10 nM) was added in 0.2 mL binding buffer (100 mM NaCl, 50 mM Tris, pH 7.4, 1 mM MgCl2, 0.2 mM MnCl2 and 1 mg/mL BSA including 1 mM CaCl2 for αIIbβ3) to the wells in triplicate in the absence or presence of increasing concentrations of compounds of interest (0.001-100 uM) and further incubated for 2 hours at 37° C. Nonbound fibrinogen was removed by five washes with binding buffer. Avidin conjugated to alkaline phosphatase (Sigma), diluted in binding buffer, was added and incubated for two hours at 37° C. The plates were washed five times with binding buffer, and after addition of the substrate PNPP (Pierce), the enzyme activity was measured by the absorbance at 405 nm.
# [2] = system: HMVEC; assay: Cell proliferation and cytotoxicity MTT assay, HMVEC; format: cell-based; conditions: HMVEC, 72 hours culture
# Experimental: (§1) The wells of microtiter plates were seeded with 2000 cells/well T24, 2500 cells/well HT29 or 5000 cells/well HMVEC (Cell Systems) in 100 uL, followed by an overnight culture for cell adhesion. The next day, the media is supplemented with 100 uL of 10-fold dilution of compound of interest starting at 10 uM. Following culture for 72 hours, 3-(4,5-dimethyl-2-thiazolyl)-2,5-diphenyltetrazolium bromide (MTT; Sigma) at 2 mg/mL was added to each well (50 uL/well) and further incubated for 4 hours at 37° C. The medium was flicked out and 200 uL of a 1:1 solution of ethanol:acetone followed by 25 uL of glycine buffer (0.1 M glycine, 0.1M NaCl, pH 10.5) is added and the color measured by the absorbance at 570 nm.
# [3] = system: HT29; assay: Cell proliferation and cytotoxicity MTT assay, HT29; format: cell-based; conditions: Homo sapiens, HT-29, 72 hours culture
# Experimental: as §1
# [4] = system: Human non small-cell lung cancer cell line H460; assay: Inhibition of metastasis in angiomouse/metamouse human lung cancer model of H460; format: in vivo, athymic BALB/c nude mice
# Experimental: Male and female athymic BALB/c nude mice between 4 and 5 weeks of age were used. The animals were bred and maintained in an HEPA-filtered environment with cages, food and bedding sterilized by autoclaving. The breeding pairs were obtained from the Charles River Laboratories (Wilmington, Mass.). The animal diets were obtained from Harlan Teklab (Madison, Wis.). Ampicillin (Sigma, St Louis, Mo.) 5.0% (v/v) was added to the autoclaved drinking water.
# Compound VII was tested and AGM-1470 (chloroacetyl-(3R,4S,5S,6R)-5-methoxy-4-[(2R,3R)-2-methyl-3-(3-methyl-2-butenyl)oxiranyl]-1-oxaspiro[2.5]oct-6-yl ester carbamic acid) was used as a positive control. [drawing 51] The compounds were dissolved using PEG400 with heating and sonicatin. The solutions were then diluted with saline to obtain the desired concentrations (30%/70%) and stored at −20° C.
# Human non small-cell lung cancer cell line H460 with expression of green fluorescent protein was obtained from the National Cancer Institute. The cells were transfected with vectors carrying the green fluorescent protein (GFP) gene. The cell line was propagated by subcutaneous implantation in nude mice.
# Test animals were transplanted by surgical orthotopic implantation (SOI) using fragments harvested from subcutaneaous tumor stock animals. The animals were anesthetized with isoflurane and the surgical area was sterilized using iodine solution and alcohol. A left thoracotomy was made along the 4th intercostal space using a pair of scissors. Two pieces of H460 tumor tissue of one cubic millimiter each were sutured to the left lung using an 8-0 nylon surgical suture. The thorax was closed using a sterile 6-0 silk suture. A sterile 3-cc syringe with a 25-gauge needle was used to remove the air and inflate the lung. All surgical and animal manipulations and procedures were conducted under HEPA-filtered laminar flow hoods.
# Extra numbers of mice were transplanted to compensate for postsurgical losses. The orthotopically transplanted animals used were selected to establish groups of similar mean body weight. Groups for each of the cohort conditions wre randomly chosen. The cohort was grouped as follows. A total of 10 mice were used for each dosage regimen. Administration of test compounds and vehicle by subcutaneous injection was begun three days after the orthotopic implantation.
# Two animals for each treatment group were sacrificed at day-14 after orthotopic implantation of H460. The remaining animals for each group were sacrificed at day-28 after implantation. The sacrificed animals were evaluated for primary and secondary tumors. Gross examination for distant metastasis was conducted at necropsy. Tissue samples of the primary tumor and those from relevant organs such as the lung, the liver and the lymph nodes wre processed through standards procedures of hematoxylin and eosin staining for subsequent microscopic examination.
# The mediastinal lymph nodes, the liver and the lung in each animal were collected. The sampled tissues were sectioned and stained, then microscopically examined. The fisher-exact test was performed to compare distant metastasis to these organs in the treated and the controls. […]
# [5] = Group C, 5 mg/kg SC 2 times/day
structure (smiles),measurement,setting,value
"NCCCNC(=O)c1ccc(C(=O)NC(CC(=O)O)c2ccccc2)s1.O=C(O)C(F)(F)F (stereo not shown) [Compound VII, 3-{[5-(3-Amino-propylcarbamoyl)-thiophene-2-carbonyl]-amino}-3-phenyl-propionic acid trifluoroacetic acid salt]",IC50,[1],13.7 µM
same,IC50,[2],> 10 µM
same,IC50,[3],> 10 µM
same,Incidence of lung metastasis,[4]; [5],1/10
same,Incidence of lymph node metastasis,[4]; [5],2/10
same,Incidence of lymph node metastasis,"[4]; Group D, 50 mg/kg SC 2 times/day",3/10
same,Incidence of lung metastasis,"[4]; Group D, 50 mg/kg SC 2 times/day, trifluoroacetic acid salt, 50 mg/kg",no lung metastasis and 0/10
